In patent EP4740948A1 (Dong Wha Pharm. Co., Ltd., priority 2023, dated 2025):

Legend:
Format in all cases: cell-based
Lovo cells = test: Cancer cell proliferation inhibition (Cell Counting Kit-8), colorectal cancer cell line; settings: 1000 nM, cultured seven to 11 days; for inhibition at 1 µM: Homo sapiens, LoVo, 264 h, read-out: % inhibition rate LoVo
Method: (§1) In addition, as one example of solid cancer in which an overexpression of EZH2 and a consequent disease association therebetween is reported, a proliferation inhibitory activity of the 1,3-benzodioxole derivative compounds represented by chemical formula I of the present invention was evaluated in Lovo cells as a colorectal cancer cell line, SW-13 cells as an adrenal cancer cell line, MIA-PaCa-2 cells as a pancreatic cancer cell line, and NCI-H1299 cells as a lung cancer cell line.
(§2) Each cell line (G401 cell, MKN-45 cell, Lovo cell, SW-13 cell, MIA-PaCa-2, NCI-H1299) of Table 2 below was cultured using RPMI1640, McCoy's 5a, L-15 or DMEM containing 10% fetal bovine serum, and the cells were seeded into wells of a 96-well culture dish at 100 to 1,000 cells each, and a test substance 1000 nM was cultured for seven to 11 days after drug treatment. After the culture, the cells were measured according to a manufacturer's instructions using Cell Counting Kit-8, and a cell proliferation inhibitory effect (% inhibition rate) of the test substance was obtained.
(§3) The cell proliferation inhibitory effect (% inhibition rate) of the test substance was calculated using a following equation. % inhibition rate = {1−(testgroup/controlgroup)} X 100 [formula]

G401 cells = test: Cancer cell proliferation inhibition (Cell Counting Kit-8), rhabdoid tumor cell line; settings: 1000 nM, cultured seven to 11 days; for % inhibition rate G401: 1 µM; for inhibition at 1 µM: Homo sapiens, G-401, 264 h, read-out: % inhibition rate G401
Excerpt: (§4) Among solid cancer cells, in G401 cells in which expression of SMARCB1, which is a member of switch/sucrosenon-fermenting (SWI/SNF), is defective as a cell line of a rhabdoid tumor in which a therapeutic effect may be expected through dual inhibition of EZH1/2, and MKN-45 cells in which expression of ARID1A, which is a member of SWI/SNF, is defective as a gastric cancer cell line, a proliferation inhibitory ability of the 1,3-benzodioxole derivative compounds represented by chemical formula I of the present invention was evaluated.
as §2, §3

MKN-45 cells = test: Cancer cell proliferation inhibition (Cell Counting Kit-8), gastric cancer cell line; settings: 1000 nM, cultured seven to 11 days; for inhibition at 1 µM: Homo sapiens, MKN-45, 264 h, read-out: % inhibition rate MKN -45
Excerpt: as §4, §2, §3

SW-13 cells = test: Cancer cell proliferation inhibition (Cell Counting Kit-8), adrenal cancer cell line; settings: 1000 nM, cultured seven to 11 days; for inhibition at 1 µM: Homo sapiens, SW13, 264 h, read-out: % inhibition rate SW-13
Method: as §1, §2, §3

MIA-PaCa-2 cells = test: Cancer cell proliferation inhibition (Cell Counting Kit-8), pancreatic cancer cell line; settings: 1000 nM, cultured seven to 11 days; for inhibition at 1 µM: Homo sapiens, MIA PaCa-2, 264 h, read-out: % inhibition rate MIA-Paca2
Method: as §1, §2, §3

NCI-H1299 cells = test: Cancer cell proliferation inhibition (Cell Counting Kit-8), lung cancer cell line; settings: 1000 nM, cultured seven to 11 days; for inhibition at 1 µM: Homo sapiens, NCI-H1299, 264 h, read-out: % inhibition rate NCI-H129 9
Method: as §1, §2, §3

Row | Compound | % inhibition rate LoVo (Lovo cells; 1 µM) | % inhibition rate G401 (G401 cells) | % inhibition rate MKN -45 (MKN-45 cells; 1 µM) | % inhibition rate SW-13 (SW-13 cells; 1 µM) | % inhibition rate MIA-Paca2 (MIA-PaCa-2 cells) | % inhibition rate NCI-H129 9 (NCI-H1299 cells) | % inhibition rate LoVo (Lovo cells) | % inhibition rate MKN -45 (MKN-45 cells) | % inhibition rate SW-13 (SW-13 cells) | % inhibition rate NCI-H129 9 (NCI-H1299 cells; 1 µM) | inhibition at 1 µM (Lovo cells) | inhibition at 1 µM (G401 cells) | inhibition at 1 µM (MKN-45 cells) | inhibition at 1 µM (SW-13 cells) | inhibition at 1 µM (MIA-PaCa-2 cells) | inhibition at 1 µM (NCI-H1299 cells)
1 | CCN1CCN(c2ncc(-c3cc(C(=O)NCc4c(SC)cc(C)[nH]c4=O)c(C)c4c3OC(C)(C3CCN(CC(F)(F)F)CC3)O4)cn2)CC1 (single isomer, unassigned) [Compound 77, 7-(2-(4-ethylpiperazin-1-yl)pyrimidin-5-yl)-2,4-dimethyl-N-((6-methyl-4-(methylthio)-2-oxo-1,2-dihydropyridin-3-yl)methyl)-2-(1-(2,2,2-trifluoroethyl)piperidin-4-yl)benzo[d][1,3]dioxole-5-carboxamide] | ++ (++: more than 30% and less than 70%) | + (+: ≤30%) | + (+: ≤30%) | + (+: ≤30%) | + (+: ≤30%) | + (+: ≤30%) | – | – | – | – | – | – | – | – | – | –
2 | CSc1cc(C)[nH]c(=O)c1CNC(=O)c1cc(-c2cnc(N3CCOCC3)nc2)c2c(c1C)OC(C)(C1CCN(CC(F)F)CC1)O2 (single isomer, unassigned) [Compound 72, 2-(1-(2,2-difluoroethyl)piperidin-4-yl)-2,4-dimethyl-N-((6-methyl-4-(methylthio)-2-oxo-1,2-dihydropyridin-3-yl)methyl)-7-(2-morpholinopyrimidin-5-yl)benzo[d][1,3]dioxole-5-carboxamide] | – | + (+: ≤30%) | – | – | + (+: ≤30%) | – | +++ (+++: ≥70%) | ++ (++: more than 30% and less than 70%) | ++ (++: more than 30% and less than 70%) | + (+: ≤30%) | – | – | – | – | – | –
3 | CSc1cc(C)[nH]c(=O)c1CNC(=O)c1cc(-c2ccc(N3C[C@@H](C)O[C@@H](C)C3)nc2)c2c(c1C)OC(C)(C1CCN(C(=O)C(F)(F)F)CC1)O2 (single isomer, unassigned) [Compound 60] | – | + (+: ≤30%) | + (+: ≤30%) | + (+: ≤30%) | + (+: ≤30%) | – | +++ (+++: ≥70%) | – | – | + (+: ≤30%) | – | – | – | – | – | –
4 | CSc1cc(C)[nH]c(=O)c1CNC(=O)c1cc(-c2ccc(N3C[C@@H](C)O[C@@H](C)C3)nc2)c2c(c1C)OC(C)([C@H]1CC[C@H](N3CC(OC(C)C)C3)CC1)O2 (stereo partly drawn) [Compound 105, 7-(6-((2S,6R)-2,6-dimethylmorpholino)pyridin-3-yl)-2-(trans-4-(3-isopropoxyazetidin-1-yl)cyclohexyl)-2,4-dimethyl-N-((6-methyl-4-(methylthio)-2-oxo-1,2-dihydropyridin-3-yl)methyl)benzo[d][1,3]dioxole-5-carboxamide] | – | – | – | – | – | – | – | – | – | – | ≥ 70% | 30 to 70% | ≥ 70% | ≥ 70% | ≥ 70% | ≥ 70%
5 | CSc1cc(C)[nH]c(=O)c1CNC(=O)c1cc(-c2ccc(N3C[C@@H](C)O[C@@H](C)C3)nc2)c2c(c1C)OC(C)(C1CCN(CCc3ccccc3)CC1)O2 (single isomer, unassigned) [Compound 56] | – | ++ (++: more than 30% and less than 70%) | + (+: ≤30%) | + (+: ≤30%) | + (+: ≤30%) | – | +++ (+++: ≥70%) | – | – | + (+: ≤30%) | – | – | – | – | – | –
6 | CSc1cc(C)[nH]c(=O)c1CNC(=O)c1cc(-c2ccc(N3C[C@@H](C)O[C@@H](C)C3)nc2)c2c(c1C)OC(C)(C1CCN(C(C)C)CC1)O2 (single isomer, unassigned) [Compound 52] | + (+: ≤30%) | + (+: ≤30%) | – | + (+: ≤30%) | + (+: ≤30%) | – | – | + (+: ≤30%) | – | + (+: ≤30%) | – | – | – | – | – | –
7 | CCN(C)c1ccc(-c2cc(C(=O)NCc3c(SC)cc(C)[nH]c3=O)c(C)c3c2OC(C)(C2CCN(CC(F)(F)F)CC2)O3)cn1 (single isomer, unassigned) [Compound 80, 7-(2-(ethyl(methyl)amino)pyridin-5-yl)-2,4-dimethyl-N-((6-methyl-4-(methylthio)-2-oxo-1,2-dihydropyridin-3-yl)methyl)-2-(1-(2,2,2-trifluoroethyl)piperidin-4-yl)benzo[d][1,3]dioxole-5-carboxamide] | – | + (+: ≤30%) | ++ (++: more than 30% and less than 70%) | + (+: ≤30%) | + (+: ≤30%) | – | +++ (+++: ≥70%) | – | – | + (+: ≤30%) | – | – | – | – | – | –
8 | CSc1cc(C)[nH]c(=O)c1CNC(=O)c1cc(-c2ccc(N3CCOCC3)nc2)c2c(c1C)OC(C)(C1CCN(CC(F)F)CC1)O2 (single isomer, unassigned) [Compound 65, 2-(1-(2,2-difluoroethyl)piperidin-4-yl)-2,4-dimethyl-N-((6-methyl-4-(methylthio)-2-oxo-1,2-dihydropyridin-3-yl)methyl)-7-(6-morpholinopyridin-3-yl)benzo[d][1,3]dioxole-5-carboxamide] | ++ (++: more than 30% and less than 70%) | + (+: ≤30%) | – | + (+: ≤30%) | + (+: ≤30%) | + (+: ≤30%) | – | ++ (++: more than 30% and less than 70%) | – | – | – | – | – | – | – | –
9 | CSc1cc(C)[nH]c(=O)c1CNC(=O)c1cc(-c2ccc(N3C[C@@H](C)O[C@@H](C)C3)nc2)c2c(c1C)OC(C)(C1CCN(CC(F)F)CC1)O2 (single isomer, unassigned) [Compound 48] | – | + (+: ≤30%) | + (+: ≤30%) | + (+: ≤30%) | + (+: ≤30%) | ++ (++: more than 30% and less than 70%) | +++ (+++: ≥70%) | – | – | – | – | – | – | – | – | –
10 | CCN(C)c1ncc(-c2cc(C(=O)NCc3c(SC)cc(C)[nH]c3=O)c(C)c3c2OC(C)(C2CCN(CC(F)F)CC2)O3)cn1 (single isomer, unassigned) [Compound 82, 2-(1-(2,2-difluoroethyl)piperidin-4-yl)-7-(2-(ethyl(methyl)amino)pyrimidin-5-yl)-2,4-dimethyl-N-((6-methyl-4-(methylthio)-2-oxo-1,2-dihydropyridin-3-yl)methyl)benzo[d][1,3]dioxole-5-carboxamide] | – | ++ (++: more than 30% and less than 70%) | + (+: ≤30%) | + (+: ≤30%) | + (+: ≤30%) | + (+: ≤30%) | +++ (+++: ≥70%) | – | – | – | – | – | – | – | – | –
11 | CSc1cc(C)[nH]c(=O)c1CNC(=O)c1cc(-c2ccc(N3C[C@@H](C)O[C@@H](C)C3)nc2)c2c(c1C)OC(C)([C@H]1CC[C@H](N3CC(CC(F)(F)F)C3)CC1)O2 (stereo partly drawn) [Compound 102, 7-(6-((2S,6R)-2,6-dimethylmorpholino)pyridin-3-yl)-2,4-dimethyl-N-((6-methyl-4-(methylthio)-2-oxo-1,2-dihydropyridin-3-yl)methyl)-2-(trans-4-(3-(2,2,2-trifluoroethyl)azetidin-1-yl)cyclohexyl)benzo[d][1,3]dioxole-5-carboxamide] | – | – | – | – | – | – | – | – | – | – | ≥ 70% | 30 to 70% | 30 to 70% | ≥ 70% | ≥ 70% | ≤ 30%
12 | CSc1cc(C)[nH]c(=O)c1CNC(=O)c1cc(-c2ccc(N3CC(C)CC(C)C3)nc2)c2c(c1C)OC(C)(C1CCN(CC(F)(F)F)CC1)O2 (stereo not drawn) [Compound 37, 7-(6-(3,5-dimethylpiperidin-1-yl)pyridin-3-yl)-2,4-dimethyl-N-((6-methyl-4-(methylthio)-2-oxo-1,2-dihydropyridin-3-yl)methyl)-2-(1-(2,2,2-trifluoroethyl)piperidin-4-yl)benzo[d][1,3]dioxole-5-carboxamide] | – | – | – | – | – | – | – | – | – | – | ≥ 70% | ≤ 30% | ≤ 30% | ≤ 30% | ≤ 30% | 30 to 70%
